From ChEMBL document CHEMBL1201861, “Genomics of Drug Sensitity in Cancer screening data, Wellcome Trust Sanger Institute” come the findings set out here.

SMILES strings stand for the structures. Bounds are passed on as bounds.

In one assay the test system is NCI-H64. Briefly: cells. It counts as functional, cell-based, Homo sapiens. As to conditions: Homo sapiens, NCI-H64.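 Note: growth inhibition of NCI-H64 cells, read out with a cell viability assay.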
The test system of a further assay is NB1. Briefly: cells. The format is functional, cell-based, Homo sapiens. As to conditions: Homo sapiens, NB1.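 Note: reduction of NB1 cell proliferation, read out with a viability assay.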
For a further assay, the system named is MRK-nu-1. Kind of assay: cells. It counts as functional, cell-based, Homo sapiens. The note with it: Homo sapiens, MRK-nu-1.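 Note: cell viability assay measuring growth suppression of human MRK-nu-1 cells.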
The next assay deals with KMOE-2. Kind of assay: cells. It counts as functional, cell-based, Homo sapiens. The note with it: Homo sapiens, KMOE-2.
A further assay relates to RL. Kind of assay: cells. It counts as functional, cell-based, Homo sapiens. The note with it: Homo sapiens, RL.
A further assay relates to SNU-C1. Briefly: cells. The format is functional, cell-based, Homo sapiens. As to conditions: Homo sapiens, SNU-C1.
For a further assay, the system named is RL95-2. Briefly: cells. It counts as functional, cell-based, Homo sapiens. As to conditions: Homo sapiens, RL95-2.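 Note: RL95-2 growth inhibition determined through a cell viability readout.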
Another assay concerns NCI-H2081. Kind of assay: cells. As to conditions: Homo sapiens, NCI-H2081. It counts as functional, cell-based, Homo sapiens.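 Note: growth inhibition of human NCI-H2081 cells, read out with a cell viability assay.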
The subject of a further assay is CHP-126. Kind of assay: cells. The format is functional, cell-based, Homo sapiens. The note with it: Homo sapiens, CHP-126.
Another assay concerns BC1 cell line. Briefly: SANGER: Inhibition of human BC-1 cell growth in a cell viability assay. The note with it: Homo sapiens, BC1. It counts as functional, cell-based.
For a further assay, the system named is YT. Briefly: cells. It counts as functional, cell-based, Homo sapiens. As to conditions: Homo sapiens, YT.
The next assay has as its system DMS-153. Kind of assay: cells. The format is functional, cell-based, Homo sapiens. The note with it: Homo sapiens, DMS-153.
The next assay concerns OPM-2. Kind of assay: cells. The format is functional, cell-based, Homo sapiens. The note with it: Homo sapiens, OPM-2.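 Note: growth of OPM-2 cells measured with a viability assay, IC50 for suppression of proliferation.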
Another assay has as its system MFH-ino. Briefly: cells. It counts as functional, cell-based, Homo sapiens. The note with it: Homo sapiens, MFH-ino.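 Note: growth inhibition of human MFH-ino cells, read out by a cell viability assay.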
The subject of another assay is SK-MM-2. Briefly: cells. As to conditions: Homo sapiens, SK-MM-2. The format is functional, cell-based, Homo sapiens.
The next assay concerns MHH-CALL-2. Kind of assay: cells. As to conditions: Homo sapiens, MHH-CALL-2. It counts as functional, cell-based, Homo sapiens.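 Note: growth inhibition of the cell line, read out in a cell viability assay.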
The test system of another assay is HuTu80. Briefly: cells. It counts as functional, cell-based, Homo sapiens, HUTU-80. The note with it: Homo sapiens, HuTu80.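 Note: growth inhibition of HuTu80 human cells, determined with a cell viability readout.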

Description for CHP-126: SANGER: Inhibition of human CHP-126 cell growth in a cell viability assay.
Description for DMS-153: SANGER: Inhibition of human DMS-153 cell growth in a cell viability assay.
Description for HuTu80: SANGER: Inhibition of human HUTU-80 cell growth in a cell viability assay.
Description for KMOE-2: SANGER: Inhibition of human KMOE-2 cell growth in a cell viability assay.
Description for MFH-ino: SANGER: Inhibition of human MFH-ino cell growth in a cell viability assay.
Description for MHH-CALL-2: SANGER: Inhibition of human MHH-CALL-2 cell growth in a cell viability assay.
Description for MRK-nu-1: SANGER: Inhibition of human MRK-nu-1 cell growth in a cell viability assay.
Description for NB1: SANGER: Inhibition of human NB1 cell growth in a cell viability assay.
Description for NCI-H2081: SANGER: Inhibition of human NCI-H2081 cell growth in a cell viability assay.
Description for NCI-H64: SANGER: Inhibition of human NCI-H64 cell growth in a cell viability assay.
Description for OPM-2: SANGER: Inhibition of human OPM-2 cell growth in a cell viability assay.
Description for RL95-2: SANGER: Inhibition of human RL95-2 cell growth in a cell viability assay.
Description for SK-MM-2: SANGER: Inhibition of human SK-MM-2 cell growth in a cell viability assay.
Description for SNU-C1: SANGER: Inhibition of human SNU-C1 cell growth in a cell viability assay.
Description for YT: SANGER: Inhibition of human YT cell growth in a cell viability assay.

With `C[C@@H](Oc1cc(-c2cnn(C3CCNCC3)c2)cnc1N)c1c(Cl)ccc(F)c1Cl` [CRIZOTINIB], the IC50 (commonly the concentration at which inhibition is half-maximal) is > 2000 nM with NCI-H64; 92 nM with NB1; > 2000 nM in the assay with MRK-nu-1; > 2000 nM with KMOE-2; > 2000 nM in the assay with RL; > 2000 nM in the assay with SNU-C1. The IC50 with RL95-2, with NCI-H2081, in the assay with CHP-126, in the assay on BC1 cell line, in the assay with YT and with DMS-153 was > 2000 nM throughout. The IC50 with OPM-2 was > 2000 nM; with MFH-ino, > 2000 nM; in the assay with SK-MM-2, > 2000 nM; with MHH-CALL-2, 683 nM; with HuTu80, > 2000 nM.
As to `Nc1ccccc1NC(=O)c1ccc(CNC(=O)OCc2cccnc2)cc1` [ENTINOSTAT], the IC50 in the assay with NCI-H64 is 1280 nM; with NB1 it was 1280 nM; in the assay with MRK-nu-1, 432 nM; in the assay on KMOE-2, 2880 nM; in the assay with RL it was > 5000 nM; with SNU-C1, > 5000 nM. The concentration for half-maximal inhibition (IC50) is 2110 nM in the assay with RL95-2; > 5000 nM with NCI-H2081; 402 nM in the assay on CHP-126; 434 nM with BC1 cell line; > 5000 nM with YT; 975 nM in the assay with DMS-153. For the same compound, the IC50 in the assay on OPM-2 stood at 415 nM; in the assay on MFH-ino, 3470 nM; in the assay with SK-MM-2, 399 nM; with MHH-CALL-2 it was 1250 nM; in the assay on HuTu80, 1800 nM.
